This passage reports GI50 and TGI results from PubChem BioAssay (NCI).

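Tested at 5 concentrations; 48 h exposure; 96-well plates; endpoints linearly interpolated, else capped at highest concentration. GI50 is the concentration that inhibits growth by half. Definition used: TGI = concentration required for complete inhibition of growth.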

Some test systems named below: OVCAR-5 ovarian; HT29 colon; CCRF-CEM leukemia; A498 renal; NCI-H522 lung; PC-3 prostate; IGROV1 ovarian; SK-MEL-5 melanoma; COLO 205 colon; SNB-75 CNS.
Holding throughout (assay): inhibition of tumour cell growth, NCI panel, 48 h

Turning to `Cc1cc(C)c(Cn2cnc3c(Cl)ncnc32)c(C)c1CCl`, the GI50 in the experiment with OVCAR-5 ovarian is above 100 µM; with HT29 colon, 25800 nM; with CCRF-CEM leukemia, 24900 nM; in the experiment with A498 renal, above 100 µM; with NCI-H522 lung, above 100000 nM; with PC-3 prostate, above 100000 nM. Also, the GI50 was above 100 µM in the experiment on IGROV1 ovarian, above 100000 nM in the experiment on SK-MEL-5 melanoma and 79.1 µM with COLO 205 colon. The TGI in the experiment on OVCAR-5 ovarian is above 100 µM; in the experiment with HT29 colon it was above 100 µM; in the experiment with CCRF-CEM leukemia, 95.2 µM; with A498 renal it was above 100 µM; in the experiment on NCI-H522 lung, above 100 µM; in the experiment on PC-3 prostate it was above 100 µM. The TGI with IGROV1 ovarian, in the experiment on SK-MEL-5 melanoma and in the experiment on COLO 205 colon was above 100 µM each time.
Take `COc1ccc(/C=N\Nc2ccc([N+](=O)[O-])cn2)cc1OC`: the GI50 in the experiment on OVCAR-5 ovarian is above 100 µM; with HT29 colon, above 100000 nM; in the experiment on CCRF-CEM leukemia, above 100000 nM; in the experiment with A498 renal, 3.43 µM; in the experiment on NCI-H522 lung it was above 100000 nM; with PC-3 prostate it was above 100000 nM. The GI50 with SNB-75 CNS was 2900 nM; in the experiment on SK-MEL-5 melanoma, above 100000 nM. The TGI in the experiment on OVCAR-5 ovarian is above 100 µM; with HT29 colon, above 100 µM; in the experiment on CCRF-CEM leukemia it was above 100 µM; in the experiment on A498 renal it was 59.6 µM; in the experiment on NCI-H522 lung it was above 100 µM; with PC-3 prostate, above 100 µM. In addition, the TGI in the experiment on SNB-75 CNS was 16.4 µM; in the experiment with SK-MEL-5 melanoma, above 100 µM.
As to `Cc1cccc(C)c1NC(=O)Nc1ccc(S(N)(=O)=O)cc1`, the TGI with OVCAR-5 ovarian, in the experiment on HT29 colon, in the experiment on CCRF-CEM leukemia, with A498 renal, in the experiment on NCI-H522 lung and with PC-3 prostate was above 100 µM each time. The TGI in the experiment with IGROV1 ovarian, in the experiment with SNB-75 CNS, with SK-MEL-5 melanoma and with COLO 205 colon was above 100 µM each time.
Regarding `COc1ccc2c(c1)CC[C@H](O)/C2=C/c1cc(OC)c(OC)c(OC)c1`, the GI50 with OVCAR-5 ovarian was 0.906 µM; in the experiment on HT29 colon, 107 nM; in the experiment with CCRF-CEM leukemia, 273 nM; in the experiment with A498 renal, 0.0467 µM; with NCI-H522 lung, 82.4 nM; with PC-3 prostate, 85.5 nM. For the same molecule, the GI50 is 1.38 µM in the experiment on IGROV1 ovarian, 63.8 nM in the experiment on SNB-75 CNS, 60.8 nM with SK-MEL-5 melanoma and 0.106 µM in the experiment on COLO 205 colon. Besides, the TGI was above 100 µM in the experiment with OVCAR-5 ovarian; above 100 µM in the experiment on HT29 colon; above 100 µM in the experiment on CCRF-CEM leukemia; 6.16 µM with NCI-H522 lung; above 100 µM in the experiment on PC-3 prostate; above 100 µM with IGROV1 ovarian. Also, the TGI with SNB-75 CNS is above 100 µM; in the experiment with SK-MEL-5 melanoma, 2.89 µM; in the experiment on COLO 205 colon, 0.639 µM.
`CCN(CC)CCCC(C)N=C(C1=C(C(=NC(C)CCCN(CC)CC)c2cccc(OC)c2)C(=O)NC1=O)c1cccc(OC)c1` (stereo unspecified): the GI50 was 631 nM with HT29 colon; 1490 nM in the experiment on CCRF-CEM leukemia; 1.85 µM in the experiment on A498 renal; 989 nM with NCI-H522 lung; 1470 nM in the experiment on PC-3 prostate; 3.67 µM with IGROV1 ovarian. The GI50 with SNB-75 CNS is 1650 nM; in the experiment with SK-MEL-5 melanoma, 888 nM; in the experiment on COLO 205 colon it was 0.772 µM. The TGI in the experiment on HT29 colon amounted to 1.79 µM; with CCRF-CEM leukemia, 7.47 µM; with A498 renal, 8.38 µM; in the experiment on NCI-H522 lung, 2.03 µM; in the experiment on PC-3 prostate, 5.12 µM; in the experiment with IGROV1 ovarian, 20.6 µM. For the same molecule, the results for the TGI in the experiment with SNB-75 CNS, in the experiment with SK-MEL-5 melanoma and in the experiment with COLO 205 colon were 6.81 µM, 1.66 µM and 1.56 µM, respectively.
As to `CC[N+]1(C)CCC(O)(c2ccc(OC)cc2)C(C(=O)c2ccc(OC)cc2)C1` (stereo unspecified), the TGI amounted to 35.3 µM in the experiment with OVCAR-5 ovarian; 15.7 µM in the experiment with HT29 colon; 4.94 µM in the experiment on CCRF-CEM leukemia; 32.6 µM with A498 renal; 3.89 µM with NCI-H522 lung; 31.8 µM in the experiment with PC-3 prostate. Further, the TGI in the experiment with IGROV1 ovarian came out at 41.2 µM; with SNB-75 CNS it was 27.8 µM; with SK-MEL-5 melanoma, 29.5 µM; with COLO 205 colon, 10.6 µM.
On to `CN/N=C(\C)C(CN(C)C)C(c1ccccc1)c1c(O)c2ccccc2oc1=O` (stereo unspecified), for which the TGI in the experiment on OVCAR-5 ovarian, with HT29 colon, in the experiment on CCRF-CEM leukemia, in the experiment on A498 renal, in the experiment with NCI-H522 lung and in the experiment with PC-3 prostate was above 100 µM in each case. In addition, the TGI in the experiment on IGROV1 ovarian, with SNB-75 CNS, in the experiment with SK-MEL-5 melanoma and in the experiment with COLO 205 colon was above 100 µM in each case.
Regarding `COC(=O)c1cc(O)c2c(c1C(=O)OC)C[C@H]1[C@@H]3CC=C4C[C@@H](O)CC[C@]4(C)[C@H]3CC[C@]21C`, the GI50 was 4.82 µM in the experiment with OVCAR-5 ovarian; 2740 nM in the experiment with HT29 colon; 1710 nM in the experiment on CCRF-CEM leukemia; 3.7 µM with A498 renal; 2170 nM in the experiment on NCI-H522 lung; 2510 nM in the experiment on PC-3 prostate. The GI50 in the experiment on IGROV1 ovarian is 3.89 µM; in the experiment on SNB-75 CNS, 9750 nM. The TGI with OVCAR-5 ovarian came out at 23.9 µM; in the experiment on HT29 colon it was 7 µM; in the experiment with CCRF-CEM leukemia, 4.99 µM; in the experiment on A498 renal, 20.1 µM; with NCI-H522 lung, 5.44 µM; in the experiment on PC-3 prostate, 13.3 µM. The TGI came to 15.9 µM in the experiment on IGROV1 ovarian and 55.9 µM with SNB-75 CNS.
As to `COc1cc(CNc2ccccc2C(=O)N2CCN(C(=O)c3cc(-c4cc(OC)c(OC)c(OC)c4)n4nc(-c5ccccc5)cc4n3)CC2)cc(OC)c1OC`, the GI50 in the experiment with OVCAR-5 ovarian is 10.9 µM; in the experiment on HT29 colon it was 3500 nM; in the experiment with A498 renal it was 2.15 µM; with NCI-H522 lung, 2220 nM; with PC-3 prostate it was 2350 nM; with IGROV1 ovarian it was 7.73 µM. Further, the GI50 is 1980 nM in the experiment with SNB-75 CNS, 1580 nM in the experiment with SK-MEL-5 melanoma and 4.1 µM in the experiment on COLO 205 colon. Moreover, the TGI with OVCAR-5 ovarian is above 100 µM; with HT29 colon, 12 µM; in the experiment on A498 renal it was 20.8 µM; in the experiment on NCI-H522 lung, above 100 µM; in the experiment with PC-3 prostate, above 100 µM; in the experiment with IGROV1 ovarian it was above 100 µM. Further, the TGI is above 100 µM in the experiment on SNB-75 CNS, 3.91 µM with SK-MEL-5 melanoma and 15.4 µM with COLO 205 colon.
As for `N#CCN/C=C\C(=O)c1ccc(Cl)cc1`, the GI50 was 37.6 µM in the experiment on OVCAR-5 ovarian; 398 nM in the experiment with CCRF-CEM leukemia; 38.6 µM in the experiment with A498 renal; above 100000 nM with NCI-H522 lung; 29500 nM in the experiment with PC-3 prostate; 31 µM with IGROV1 ovarian. In addition, the results for the GI50 in the experiment on SK-MEL-5 melanoma and in the experiment on COLO 205 colon were 17600 nM and 32.7 µM, respectively. Also, the TGI in the experiment with OVCAR-5 ovarian is 97.3 µM; in the experiment on CCRF-CEM leukemia, above 100 µM; in the experiment with A498 renal, above 100 µM; in the experiment on NCI-H522 lung, above 100 µM; in the experiment on PC-3 prostate, above 100 µM; in the experiment with IGROV1 ovarian it was above 100 µM. The TGI with SK-MEL-5 melanoma was 38.8 µM; in the experiment on COLO 205 colon, above 100 µM.
